Measurements as given in the OPERA property sets (Mansouri et al. 2018).
Where a SMILES comes first, the peptide text is derived from it.

Structure (SMILES)	logP
CN1CCN2c3ccccc3Cc3ccccc3C2C1 (stereo unspecified)	4.24
COc1ccc(S(C)(=O)=O)cc1CNC1CCCNC1c1ccccc1 (stereo unspecified)	1.9
CCCCOCCCNc1ncnc2c1ncn2C1OC(CO)C(O)C1O (stereo unspecified)	1.3
Cc1nc2ccccc2c(=O)n1CC(=O)NCc1ccccc1	1.78
CCCOc1ccc(NC(=O)OCCN2CCCCC2)cc1	4.2
Cc1ccc(N2CC(N3CCOCC3)=CC2=O)cc1	1.4
CCC(C)C(NC(=O)C(Cc1ccc(O)cc1)NC(=O)C(C)N)C(=O)O (stereo unspecified)	-2.04
O=C(O)CCCON=C(c1ccccc1)c1ccncn1	1.95
COc1ccc(CCNCC(O)COc2ccc(-c3nc(-c4cccs4)c[nH]3)cc2C)cc1OC (stereo unspecified)	4.8
O=C1C=C(N2CCOCC2)C(=O)N1c1ccc(F)cc1	1.5
N#Cc1cccc(Cc2ncccn2)c1	1.46
Nc1nnnn1-c1ccc(Cl)cc1	1.41
Nc1ncnc2c1ncn2C1OC(CCl)C(O)C1O (stereo unspecified)	-0.06
CNC=C1c2cccc(O)c2C(=O)c2c(O)cccc21	3.55
O=C1c2ccccc2-c2nnccc21	1.22
CCc1cccc(COC(=O)C2C(C=C(C)C)C2(C)C)c1 (stereo unspecified)	6.51
CCCN(CCC)C1CCc2c(OC)cccc2C1C (stereo unspecified)	4.76
CCCCOC(NC(=O)c1ccccc1O)C(Cl)(Cl)Cl (stereo unspecified)	4.45
COc1ccc(C2=NC(C(=O)O)CS2)c(O)c1OC (stereo unspecified)	1.1
C[C@]12CCC(=O)C=C1[C@@H]1C[C@@H]1[C@@H]1[C@@H]2CC[C@@]2(C)[C@H]1CC[C@@]21CCC(=O)O1	3.08
C#CCN(N=O)C(=O)NCCCC(NC(C)=O)C(=O)NCc1ccccc1 (stereo unspecified)	1.12
Cc1ccc(C)c(Cc2cnc[nH]2)c1	2.72
COC(=O)c1[nH]cc(-c2ccc(Cl)cc2)c1N1CCOCC1	3.5
CC(SSc1ncc[nH]1)c1ccccc1 (stereo unspecified)	3.39
CC(C)(C)NCC(O)COc1cccc2c1CCN(C=O)C2 (stereo unspecified)	1.3
COc1ccc(CCNCC(O)COc2ccc(-c3nc(C(C)(C)C)c[nH]3)cc2)cc1OC (stereo unspecified)	4.09

Structure (SMILES)	logP
O=[N+]([O-])c1ccc(CSc2ncnc3c(C4OC(CO)C(O)C4O)n[nH]c23)cc1 (stereo unspecified)	0.5
Nc1ccno1	-0.47
FC(F)(F)c1ccc(CNc2[nH]cnc3ncnc2-3)cc1	3.19
CCCCOC1C(=O)NC(=O)NC1=[N+]=[N-] (stereo unspecified)	-0.55
CCCCC(O)C(CCCCOc1cccc2ccccc12)n1cncn1 (stereo unspecified)	4.31
CC1(C)CCC(C(F)(F)F)=[N+]1[O-]	0.2
OCC1OC(Oc2ccc(-c3ccccc3)cc2)C(O)C(O)C1O (stereo unspecified)	1.79
CC(C)CC(N)C(=O)NC(CC(C)C)C(=O)NC(CC(C)C)C(=O)O (stereo not drawn) (H-Leu-Leu-Leu-OH; configuration not given here)	-0.94
On1nnc2ccccc21	0.69
CC(C)(C)[N+]([O-])=Cc1cccc(O)c1	1
CC(C)(C)c1ccc(C(CCN2CCCC2)c2ccccc2)cc1 (stereo unspecified)	6.72
Cc1cc2c(ccc3cc(C)c(=O)oc32)o1	2.97
CC(=O)OCOC(=O)N(C)N=Nc1ccc(C#N)cc1	2.08
O=[n+]1cnn([O-])c2ccccc21	-0.8
CNc1ncnc2[nH]cnc12	0.43
Cn1c(N)nc2ncc(-c3ccccc3)cc21	2.23
CCCCc1c(O)c(=O)cc(C)n1C	0.9
S=C=NCCCCCCCCc1ccccc1	5.81
CCCC1C(=O)N(CCN(C)C)c2ccccc2CC1c1ccc(OC)cc1 (stereo unspecified)	5.6
CCCCN(CCO)CCCC	2.65
COc1ccc(C2Cc3c(Cl)cccc3N(CCN(C)C)C(=O)C2OC(C)=O)cc1 (stereo unspecified)	4.4
CC(C)(Cc1c[nH]c2ccccc12)NCC(O)CON=C(C1CC1)C1CC1 (stereo unspecified)	3.29
Nc1nnnn1-c1cccc(Cl)c1	1.44
CC(C)NC(=S)NS(=O)(=O)c1cnccc1NC1CCCCCCC1	4.2
CC(C)CC(NC(=O)C(CC(C)C)NC(=O)C1CCCN1)C(=O)O (stereo not drawn) (H-Pro-Leu-Leu-OH; configuration not given here)	-1.64
CC(N)C(=O)N1CCCC1C(=O)O (stereo unspecified)	-2.71

Structure (SMILES)	logP
O=[N+]([O-])c1cn(Cc2ccccc2)cn1	1.36
CN(C/C=C/C#CC(C)(C)C)Cc1cccc2ccccc12	6
CCCCNC(=N)NC(=O)c1ccc(Cl)cc1	3.08
C1CCC2OC2C1 (stereo unspecified)	1.26
CC(C)CC(NC(=O)C(N)C(C)C)C(=O)O (stereo not drawn) (H-Val-Leu-OH; configuration not given here)	-2.07
COc1cc(-n2c(C(F)(F)F)nn(C)c2=S)cc(OC)c1OC	2.04
CCOP(=O)(OCC)C(C)(C)[N+]([O-])=Cc1c(OC)cc(OC)cc1OC	1.03
Cc1cc2ccc3occ(C)c3c2oc1=O	2.97
Cc1nc2c3c(c(C(=O)N(C)C)cn2c1CO)CCC(c1ccccc1)O3 (stereo unspecified)	1.72
O=C(O)c1ccccc1NC(=O)c1c(O)cccc1O	3.52
CC(=O)OCOC(=O)C(C)c1cccc(C(=O)c2ccccc2)c1 (stereo unspecified)	3.4
CN(C)CCOc1ccc(Cl)cc1	3.05
Cn1c([N+](=O)[O-])cnc1C1=NOC2CCCCC12 (stereo unspecified)	2.22
COc1ccc2cc(C(C)C(=O)OCCCOC(C)=O)ccc2c1 (stereo unspecified)	3.3
CON(C)C(=O)Nc1cccc(C#N)c1	1.33
NC1=NCC(CN2CC=CCC2)O1 (stereo unspecified)	0.19
CC(=O)OC1CC(OC2C(O)CC(OC3C(O)CC(OC4CCC5(C)C(CCC6C5CC(O)C5(C)C(C7=CC(=O)OC7)CCC65O)C4)OC3C)OC2C)OC(C)C1OC(C)=O (stereo unspecified)	2.59
CN(C1=NC(=O)N(c2ccc(Cl)cc2)C1)C1CCCCC1	2.7
COC(=O)C(C)NP(=O)(OCC1C=CC(n2cc(C)c(=O)[nH]c2=O)O1)Oc1cccc(I)c1 (stereo unspecified)	1.78
CC(C)CNC(=O)N1C(=O)N(C)CC1O (stereo unspecified)	1.32
c1ccc2c(c1)Cc1ncccc1-2	2.59
Cc1[nH]cnc1CSCCNc1ncc(Cc2cccc3c2OCO3)c(=O)n1C	2.51
CC(=O)Nc1ccc(/C=C/c2n[nH]c(=O)cc2C)cc1	1.27
O=C1C=C(N2CCOCC2)CN1c1ccc(Cl)cc1	1.9
CO[C@H]1C=CO[C@@]2(C)Oc3c(C)c(O)c4c(c3C2=O)C2=NC3(CCN(CC(C)C)CC3)NC2=C(NC(=O)C(C)=CC=C[C@H](C)[C@H](O)[C@@H](C)[C@@H](O)[C@@H](C)[C@H](OC(C)=O)[C@@H]1C)C4=O	4.5
Cc1ccc(OCC2CN=C(N)O2)cc1C (stereo unspecified)	2.1

Structure (SMILES)	logP
c1cc2ccc1CCc1ccc(cc1)CC2	4.33
COc1ccc(C2Cc3cc(C(F)(F)F)ccc3N(CCN(C)C)C(=O)C2SC(C)=O)cc1 (stereo unspecified)	5.4
NC(=S)NN=C(c1cccc([N+](=O)[O-])c1)c1ccccn1	1.9
CON(C)C(=O)Nc1cccc(CO)c1	0.62
COc1ccc(C2Cc3cc(C(F)(F)F)ccc3N(CCN(C)C)C(=O)C2CC(C)=O)cc1 (stereo unspecified)	4.7
CCOC(=O)c1ccc(N=NN(C)C(=O)OCOC(=O)C(C)NC(C)=O)cc1 (stereo unspecified)	2.73
OCCCCCNc1[nH]cnc2ncnc1-2	0.72
COC1C(O)CC(=O)OC(C)CC=CC=CC(=O)C(C)CC(CC=O)C1OC1OC(C)C(OC2CC(C)(O)C(OC(=O)CC(C)C)C(C)O2)C(N(C)C)C1O (stereo unspecified)	1.86
ON=Cc1nc(-c2cccs2)no1	2.47
CCC(C)C(NC(=O)C(CC(C)C)NC(=O)C(NC(=O)C(N)CCSC)C(C)CC)C(=O)O (stereo unspecified) (H-MILI-OH; configuration not given here)	-0.49
CN(C)CCCCc1ccccc1	3.15
CCNC(=O)Cn1cccc(O)c1=O	-0.74
Oc1cccc(CNc2ncnc3nc[nH]c23)c1	1.56
Cc1nccc2c3ccccc3n(C)c12	3.01
COC(=O)c1c(Oc2nc(OC)cc(OC)n2)cccc1C(C)=NOCCCl	3.23
COc1cc2ncnc(Nc3ccc(F)cc3)c2cc1OC	2.87
CCCOc1cccc(NC(=O)OCCN2CCCCC2)c1	4.48
Cc1c(O)c(=O)ccn1CCCOC(=O)c1cccnc1	-0.25
CC(C)(CO)N=O	-0.52
CC(C)CC(=O)OCC(=O)C1(O)C(C)CC2C3CCC4=CC(=O)C=CC4(C)C3(F)C(O)CC21C (stereo unspecified)	3.8
Cc1cc2ccc3occc3c2oc1=O	2.57
[O-][n+]1ccc(-c2ccccc2)cc1	0.93
NC(Cc1c[nH]c2ccccc12)C(=O)NC(Cc1ccccc1)C(=O)O (stereo unspecified)	-0.47
CCOCCOCCOC1CCC(NC(=O)NC23CC4CC(CC(C4)C2)C3)CC1 (stereo unspecified)	2.9
COc1ccc(CCNCC(O)COc2ccc(-c3nc(C(C)C)c[nH]3)cc2)cc1OC (stereo unspecified)	3.9
CCNC(=S)NN=C(c1cccc([N+](=O)[O-])c1)c1ccccn1	2.53

Structure (SMILES)	logP
O=S1CCCC1	-0.96
C=C(C)C(=O)OCCCCCCCCCCCC	6.57
CN(C)CCOc1cccc(Cl)c1	2.82
CCOCCOCCOCCCCCNC(=O)NC12CC3CC(CC(C3)C1)C2	3.6
CCN(CCO)CCCOc1cc2ncnc(Nc3cc(CC(=O)Nc4cccc(F)c4)[nH]n3)c2cc1OC	3.7
CCN(CC)CCNC(=O)c1c(C)cc(N)cc1C	0.98
CCN(C(C)=O)c1cccc(-c2ccnc3c(C#N)cnn23)c1	1.23
CC1OC(OC2C(C)OC(OC3C(C)OC(OC4CCC5(C)C(CCC6C5CCC5(C)C(C7=CC(=O)OC7)C(OC=O)CC65O)C4)CC3OC=O)CC2OC=O)CC(OC=O)C1OC=O (stereo unspecified)	3.16
O=C1c2ccccc2-c2nnc(-c3ccccc3O)cc21	3.15
COc1ccc2cc(C(C)C(=O)OCOC(C)=O)ccc2c1 (stereo unspecified)	3.4
Nc1ccn(C2CC(CO)C(O)C2O)c(=O)n1 (stereo unspecified)	-2.41
O=C(Nc1ncc([N+](=O)[O-])s1)c1ccc(Cl)c(Cl)c1	4.14
Cc1oc2cc3oc(=O)cc(C)c3cc2c1C	3.22
Brc1cc2cccc3ccc4cccc1c4c32	5.84
Cc1ccc(C(=O)O)cc1[N+](=O)[O-]	2.35
COc1cc2ncnc(Nc3cccc(F)c3)c2cc1OC	2.96
O=C(O)CCCCCON=C(c1cncnc1)c1cccc(C(F)(F)F)c1	3.65
COc1ccc(Nc2nc(N)nc(O)n2)cc1OC	1.76
Clc1ccc(-c2c[nH]cc2N2CCOCC2)cc1	3.2
CCCN(CCCCC(NC(C)=O)C(=O)NCc1ccccc1)C(=O)N(CCCl)N=O (stereo unspecified)	1.99
Cc1oc2ccc3ccc(=O)oc3c2c1C	2.97
COc1cc(OC)nc(Oc2cccc(Cl)c2C(=O)O)n1	2.23
